Measurements taken from PubChem BioAssay AID192 (DTP/NCI, 2004).
Values joined by “and” are separate entries in the source; they are usually repeats but may differ in a detail not shown here. Equal entries are not always repeated. Inconclusive results and toxic doses are left out. Square brackets hold non-standard residues; d marks the D form. Peptide text beside a SMILES is read from it. * marks the point of attachment. ξ: configuration not given here. ξF = NC(Cc1ccccc1)C(=O)O; ClAc = O=C(CCl)*

Tested on: BDF1 mice, B16 melanoma ip, median survival T/C
Experiment: NCI In Vivo Anticancer Drug Screen. Data for tumor model B16 Melanoma (intraperitoneal) in B6D2F1 (BDF1) mice
Settings: endpoint: median survival time, higher = longer survival
How it was run: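 Mice with transplantable tumors; drug vs vehicle groups; endpoint survival or tumor size; value = T/C.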

[1] = dose: 100.0 mg/kg/injection, schedule: Q01DX009 (ip), vehicle: saline
[2] = dose: 200.0 mg/kg/injection, schedule: Q01DX009 (ip), vehicle: saline
[3] = dose: 12.5 mg/kg/injection, schedule: Q01DX009 (ip), vehicle: Klucel (hydroxypropylcellulose) (HPC)
[4] = dose: 25.0 mg/kg/injection, schedule: Q01DX009 (ip), vehicle: Klucel (hydroxypropylcellulose) (HPC)
[5] = dose: 50.0 mg/kg/injection, schedule: Q01DX009 (ip), vehicle: Klucel (hydroxypropylcellulose) (HPC)
[6] = dose: 100.0 mg/kg/injection, schedule: Q01DX009 (ip), vehicle: Klucel (hydroxypropylcellulose) (HPC)
[7] = dose: 100.0 mg/kg/injection, schedule: Q01DX009 (ip), vehicle: saline with Tween-80
[8] = dose: 200.0 mg/kg/injection, schedule: Q01DX009 (ip), vehicle: saline with Tween-80
[9] = dose: 50.0 mg/kg/injection, schedule: Q01DX009 (ip), vehicle: saline

## CN1CCC(=C(C#N)C#N)CC1
dose: 3.13 mg/kg/injection, schedule: Q04DX003 (ip), vehicle: saline
  T/C: 105 % of control
dose: 6.25 mg/kg/injection, schedule: Q04DX003 (ip), vehicle: saline
  T/C: 94 % of control
dose: 12.5 mg/kg/injection, schedule: Q04DX003 (ip), vehicle: saline
  T/C: 110 % of control

## Cc1cc2c(C(C)C)c(O)c(O)c(C=O)c2c(O)c1-c1c(C)cc2c(C(C)C)c(O)c(O)c(C=O)c2c1O
dose: 0.25 mg/kg/injection, schedule: Q01DX009 (ip), vehicle: Klucel (hydroxypropylcellulose) (HPC)
  T/C: 93 % of control
dose: 0.5 mg/kg/injection, schedule: Q01DX009 (ip), vehicle: Klucel (hydroxypropylcellulose) (HPC)
  T/C: 91 % of control
dose: 1.0 mg/kg/injection, schedule: Q01DX009 (ip), vehicle: Klucel (hydroxypropylcellulose) (HPC)
  T/C: 96 % of control
dose: 2.0 mg/kg/injection, schedule: Q01DX009 (ip), vehicle: Klucel (hydroxypropylcellulose) (HPC)
  T/C: 104 % of control
dose: 4.0 mg/kg/injection, schedule: Q01DX009 (ip), vehicle: Klucel (hydroxypropylcellulose) (HPC)
  T/C: 91 % of control
dose: 8.0 mg/kg/injection, schedule: Q01DX009 (ip), vehicle: Klucel (hydroxypropylcellulose) (HPC)
  T/C: 91 % of control

## COc1c(O)c2c(c3cc(C(=O)N4CCc5c4c(O)c(OC)c4[nH]c(C(=O)N6CC7CC78C6=CC(=O)c6[nH]cc(C)c68)cc54)[nH]c13)CCN2C(N)=O (stereo unspecified)
dose: 10.0 micrograms/kg/injection, schedule: Q01DX009 (ip), vehicle: other
  T/C: 181 % of control

## Cc1cn(C2CC(O)C(CO)O2)c(=O)[nH]c1=O (stereo unspecified)
dose: 12.5 mg/kg/injection, schedule: Q01DX009 (ip), vehicle: saline
  T/C: 88 % of control
dose: 32.0 mg/kg/injection, schedule: Q01DX009 (ip), vehicle: saline with Tween-80
  T/C: 111 % of control
dose: 32.0 mg/kg/injection, schedule: Q01DX009 (ip), vehicle: saline
  T/C: 95 % of control and 108 % of control
dose: 50.0 mg/kg/injection, schedule: Q03HX032 (ip), vehicle: saline
  T/C: 105 % of control
dose: 64.0 mg/kg/injection, schedule: Q01DX009 (ip), vehicle: saline with Tween-80
  T/C: 120 % of control
dose: 64.0 mg/kg/injection, schedule: Q01DX009 (ip), vehicle: saline
  T/C: 100 % of control and 101 % of control
[1]
  T/C: 103 % of control
dose: 100.0 mg/kg/injection, schedule: Q03HX032 (ip), vehicle: saline
  T/C: 97 % of control
dose: 128.0 mg/kg/injection, schedule: Q01DX009 (ip), vehicle: saline with Tween-80
  T/C: 120 % of control
dose: 128.0 mg/kg/injection, schedule: Q01DX009 (ip), vehicle: saline
  T/C: 98 % of control and 103 % of control
dose: 150.0 mg/kg/injection, schedule: Q02HX012 (ip), vehicle: saline
  T/C: 103 % of control
[2]
  T/C: 89 % of control
dose: 200.0 mg/kg/injection, schedule: Q02HX012 (ip), vehicle: saline
  T/C: 102 % of control
dose: 200.0 mg/kg/injection, schedule: Q03HX032 (ip), vehicle: saline
  T/C: 89 % of control
dose: 256.0 mg/kg/injection, schedule: Q01DX009 (ip), vehicle: saline with Tween-80
  T/C: 120 % of control
dose: 256.0 mg/kg/injection, schedule: Q01DX009 (ip), vehicle: saline
  T/C: 96 % of control and 102 % of control
dose: 300.0 mg/kg/injection, schedule: Q02HX012 (ip), vehicle: saline
  T/C: 102 % of control
dose: 400.0 mg/kg/injection, schedule: Q02HX012 (ip), vehicle: saline
  T/C: 102 % of control
dose: 400.0 mg/kg/injection, schedule: Q03HX032 (ip), vehicle: saline
  T/C: 92 % of control
dose: 512.0 mg/kg/injection, schedule: Q01DX009 (ip), vehicle: saline with Tween-80
  T/C: 91 % of control
dose: 512.0 mg/kg/injection, schedule: Q01DX009 (ip), vehicle: saline
  T/C: 104 % of control and 107 % of control
dose: 600.0 mg/kg/injection, schedule: Q02HX012 (ip), vehicle: saline
  T/C: 97 % of control

## COc1ccc(Cl)[n+]([O-])n1
dose: 3.13 mg/kg/injection, schedule: Q01DX009 (ip), vehicle: Klucel (hydroxypropylcellulose) (HPC)
  T/C: 92 % of control
dose: 6.25 mg/kg/injection, schedule: Q01DX009 (ip), vehicle: Klucel (hydroxypropylcellulose) (HPC)
  T/C: 95 % of control
[3]
  T/C: 98 % of control
[4]
  T/C: 96 % of control
[5]
  T/C: 98 % of control
[6]
  T/C: 91 % of control

## O=C(CCl)NCC(=O)NC(Cc1ccccc1)C(=O)O (stereo unspecified) (ClAc-Gly-[ξF]-OH)
dose: 50.0 mg/kg/injection, schedule: Q01DX009 (ip), vehicle: saline with Tween-80
  T/C: 103 % of control
[7]
  T/C: 100 % of control
[8]
  T/C: 93 % of control

## Cc1nc(NCc2ccccc2)c2cc[nH]c2n1
dose: 0.04 mg/kg/injection, schedule: Q01DX009 (ip), vehicle: saline
  T/C: 116 % of control
dose: 0.09 mg/kg/injection, schedule: Q01DX009 (ip), vehicle: saline
  T/C: 123 % of control
dose: 0.39 mg/kg/injection, schedule: Q01DX009 (ip), vehicle: saline
  T/C: 113 % of control

## CC[C@@]1(O)C[C@H](OC2CC(N(C)C)C(OC3CC(O)C(O[C@@H]4O[C@@H](C)C(=O)C=C4N)C(C)O3)C(C)O2)c2c(cc3c(c2O)C(=O)c2c(O)ccc(O)c2C3=O)[C@H]1C(=O)OC (stereo partly specified)
dose: 0.03 mg/kg/injection, schedule: Q01DX001 (ip), vehicle: saline
  T/C: 113 % of control
dose: 0.05 mg/kg/injection, schedule: Q01DX001 (ip), vehicle: saline
  T/C: 109 % of control
dose: 0.38 mg/kg/injection, schedule: Q01DX009 (ip), vehicle: saline
  T/C: 178 % of control
dose: 0.75 mg/kg/injection, schedule: Q01DX009 (ip), vehicle: saline
  T/C: 167 % of control
dose: 1.5 mg/kg/injection, schedule: Q01DX009 (ip), vehicle: saline
  T/C: 223 % of control
dose: 1.6 mg/kg/injection, schedule: Q01DX001 (ip), vehicle: saline
  T/C: 159 % of control
dose: 3.2 mg/kg/injection, schedule: Q01DX001 (ip), vehicle: saline
  T/C: 114 % of control
dose: 1.0 micrograms/kg/injection, schedule: Q01DX005 (ip), vehicle: Klucel (hydroxypropylcellulose) (HPC)
  T/C: 110 % of control
dose: 2.0 micrograms/kg/injection, schedule: Q01DX005 (ip), vehicle: Klucel (hydroxypropylcellulose) (HPC)
  T/C: 100 % of control
dose: 4.0 micrograms/kg/injection, schedule: Q01DX005 (ip), vehicle: Klucel (hydroxypropylcellulose) (HPC)
  T/C: 107 % of control
dose: 8.0 micrograms/kg/injection, schedule: Q01DX005 (ip), vehicle: Klucel (hydroxypropylcellulose) (HPC)
  T/C: 103 % of control

## Cc1c[n+]2c3ccccc3c3ccccc3c2s1
dose: 10.0 mg/kg/injection, schedule: Q01DX009 (ip), vehicle: saline
  T/C: 105 % of control
dose: 20.0 mg/kg/injection, schedule: Q01DX009 (ip), vehicle: saline
  T/C: 105 % of control

## Nc1ncc(N)c(N)n1
[9]
  T/C: 102 % of control
[1]
  T/C: 112 % of control
[2]
  T/C: 108 % of control

## CNC(=O)Oc1ccc2c(c1)OCO2
[9]
  T/C: 95 % of control
[1]
  T/C: 114 % of control
[2]
  T/C: 107 % of control

## Cc1cc2ncn(CO)c2cc1C
[7]
  T/C: 102 % of control
[8]
  T/C: 97 % of control
dose: 400.0 mg/kg/injection, schedule: Q01DX009 (ip), vehicle: saline with Tween-80
  T/C: 97 % of control

## CN(C)c1ncnc2c1ncn2C1OC(CO)C(N)C1O (stereo unspecified)
dose: 25.0 mg/kg/injection, schedule: Q01DX009 (ip), vehicle: saline
  T/C: 111 % of control
[9]
  T/C: 118 % of control

## Oc1nc(/N=C2/N=c3ccc(Cl)cc3=N2)[nH]c1O
[3]
  T/C: 86 % of control
[4]
  T/C: 93 % of control
[5]
  T/C: 86 % of control

## CN(Cc1cnc2nc(N)nc(N)c2n1)c1c(Cl)cc(C(=O)NC(CCC(=O)O)C(=O)O)cc1Br (stereo unspecified)
dose: 25.0 mg/kg/injection, schedule: Q01DX011 (ip), vehicle: saline
  T/C: 101 % of control
dose: 50.0 mg/kg/injection, schedule: Q01DX011 (ip), vehicle: saline
  T/C: 105 % of control

## COC(=O)C(CCl)NC(C)=O (stereo unspecified)
[1]
  T/C: 102 % of control
[2]
  T/C: 102 % of control
dose: 400.0 mg/kg/injection, schedule: Q01DX009 (ip), vehicle: saline
  T/C: 117 % of control

## O=C(Nc1cccc(C(F)(F)F)c1)c1cc(Br)cc(Br)c1O
[3]
  T/C: 108 % of control
[4]
  T/C: 106 % of control
[5]
  T/C: 110 % of control

## O=c1cc(O)c1=O
dose: 0.78 mg/kg/injection, schedule: Q01DX009 (ip), vehicle: saline with Tween-80
  T/C: 106 % of control
dose: 1.56 mg/kg/injection, schedule: Q01DX009 (ip), vehicle: saline with Tween-80
  T/C: 104 % of control
dose: 3.13 mg/kg/injection, schedule: Q01DX009 (ip), vehicle: saline with Tween-80
  T/C: 110 % of control
dose: 6.25 mg/kg/injection, schedule: Q01DX009 (ip), vehicle: saline with Tween-80
  T/C: 109 % of control
dose: 12.5 mg/kg/injection, schedule: Q01DX009 (ip), vehicle: saline with Tween-80
  T/C: 93 % of control

## CCCCCCCC(=O)CC(C)C
[6]
  T/C: 106 % of control
dose: 200.0 mg/kg/injection, schedule: Q01DX009 (ip), vehicle: Klucel (hydroxypropylcellulose) (HPC)
  T/C: 86 % of control
